The values below come from patent publication US20230219978A1, “COMPOUND HAVING MACROCYCLIC STRUCTURE AND USE THEREOF” (SCINNOHUB PHARMACEUTICAL CO., LTD, priority 2020, published 2023).

Structures are written as SMILES.

Holding throughout (format): biochemical
One test concerns the target T1, RET wt (Homo sapiens, UniProt P07949).
T1 construct: purchased Carna 08-159
The experiment in a line: In vitro kinase activity assay (mobility shift assay), RET wild type. Conditions: ATP 16 μM, reaction time 60 min. In outline:
(§1)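 Compounds: 10-point 3-fold series starting 1000 nM, preincubated 10 min RT with kinase; ATP + substrate then added, 30-240 min RT. Caliper conversion read, normalised to no-enzyme and no-compound controls, dose-response fit gives IC50.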

In the next test the target is T2, RET G810R (Homo sapiens, UniProt P07949, G810R).
T2 construct: purchased Proqinase 1724-0000-1
In words: In vitro kinase activity assay (mobility shift assay), RET G810R. Particulars: ATP 201 μM, reaction time 4 h. The essentials: as §1

The next test addresses T3, RET V804M (Homo sapiens, UniProt P07949, V804M).
T3 construct: purchased signalchem R02-12GG
In words: In vitro kinase activity assay (mobility shift assay), RET V804M. Particulars: ATP 5.4 μM, reaction time 60 min. The essentials: as §1

For a further test, the target named is T4, TRKa (Homo sapiens, UniProt P04629).
T4 construct: purchased Carna 08-186
The experiment in a line: In vitro kinase activity assay (mobility shift assay), TRKa. Particulars: ATP 47.8 μM, reaction time 30 min. The essentials:
as §1

In the next test the target is T5, SRC (Homo sapiens, UniProt P12931).
T5 construct: purchased Carna 08-173
In words: In vitro kinase activity assay (mobility shift assay), SRC. Conditions: ATP 19 μM, reaction time 30 min. The method, then: The IC50 (half inhibitory concentration) values of the compounds were used as an indicator to evaluate the inhibitory effect of the compound on RET wild-type, RET mutant, TRKa, SRC, BTK and/or mutated BTK kinase.
Using the method of Mobility shift assay, the compounds were tested for inhibitory activity against the following kinases: RET wild type, RET mutant, TRKa, SRC, BTK and/or mutated BTK. The initial concentration of the test compound was 1000 nM, 3-fold dilution, 10 concentrations, detected in a well for each concentration.
20 mM hydroxyethylpiperazineethanesulfonic acid (Hepes) (pH 7.5) buffer, 10 mM MgCl2, 1 mM ethylene glycol bis(aminoethyl ether)tetraacetic acid (EGTA), 0.02% polyoxyethylene lauryl ether (Brij35), 0.02 mg/ml […] (BSA), 0.1 mM Na3VO4, 2 mM dithiothreitol (DTT), 1% DMSO.
The test compounds were dissolved in 100% dimethyl sulfoxide (DMSO) system, and prepared as 10 mM for use, and stored in a nitrogen cabinet away from light.
• (1) Preparing 1× kinase reaction buffer. • (2) Preparation of compound concentration gradient: the initial concentration of the compounds was 1000 nM, which was diluted as 100-fold final concentration of solution in 100% dimethyl sulfoxide (DMSO) in a 384-well plate. The compound was accurately 3-fold diluted with the kinase buffer solution, 10 concentrations in total, and the final concentration was 0.0508 nM. The 100-fold final concentration of solution in 100% dimethyl sulfoxide (DMSO) was obtained by dilution in 384 source plate. The liquid separator Echo 550 was used to transfer 250 nl of 100-fold final concentration of compound to the target 384 well plate. 250 nl of DMSO was added to the positive and negative control wells. • (3) 2.5-fold final concentration of kinase solution was prepared by the 1× kinase buffer. • (4) 10 4, of 2.5-fold final concentration of kinase solution was added to the compound well and the positive control well, respectively; 10 4, of 1× kinase buffer was added to the negative control well. • (5) After centrifuging at 1000 rpm for 30 second, the reaction plate was shaken and mixed, followed by incubation at room temperature for 10 min. • (6) a mixed solution of 25/15-fold final concentration of adenosine triphosphate (ATP) and kinase substrate was prepared by 1× kinase buffer. • (7) The mixed solution (15 μL) of 25/15-fold final concentration of adenosine triphosphate (ATP) and substrate was added to initiate the reaction. • (8) 384-well plate was centrifuged at 1000 rpm for 30 second, shaken and mixed well, and then incubated at room temperature for 30-240 min. • (9) After stopping the kinase reaction, the plate was centrifugated at 1000 rpm for 30 second, shaken and mixed well. • (10)The conversion rate was read with Caliper EZ Reader.
wherein Conversion%_sample is the conversion rate reading of the sample; Conversion%_min: the mean value of negative control wells, representing the conversion rate reading of wells without enzymes; Conversion%_max: the mean value of positive control wells, representing the conversion rate reading of wells without compound inhibition.
The log value of concentration was taken as the X axis, and the percentage inhibition rate was taken as the Y axis. Graphpad 6.0 analysis software was used to fit the dose-response curve, so as to obtain the IC50 value of each compound on the enzyme activity

A further test has as its target T6, BTK (Homo sapiens, UniProt Q06187).
T6 construct: purchased Carna 08-180
The experiment in a line: In vitro kinase activity assay (mobility shift assay), BTK. Conditions: ATP 71 μM, reaction time 30 min. The essentials:
as §1

The next test addresses T7, BTK C481S (Homo sapiens, UniProt Q06187, C481S).
T7 construct: purchased Carna 08-547
The experiment in a line: In vitro kinase activity assay (mobility shift assay), BTK C481S. Particulars: ATP 90 μM, reaction time 30 min. The essentials: as §1

T4 sequence (P04629 33-796): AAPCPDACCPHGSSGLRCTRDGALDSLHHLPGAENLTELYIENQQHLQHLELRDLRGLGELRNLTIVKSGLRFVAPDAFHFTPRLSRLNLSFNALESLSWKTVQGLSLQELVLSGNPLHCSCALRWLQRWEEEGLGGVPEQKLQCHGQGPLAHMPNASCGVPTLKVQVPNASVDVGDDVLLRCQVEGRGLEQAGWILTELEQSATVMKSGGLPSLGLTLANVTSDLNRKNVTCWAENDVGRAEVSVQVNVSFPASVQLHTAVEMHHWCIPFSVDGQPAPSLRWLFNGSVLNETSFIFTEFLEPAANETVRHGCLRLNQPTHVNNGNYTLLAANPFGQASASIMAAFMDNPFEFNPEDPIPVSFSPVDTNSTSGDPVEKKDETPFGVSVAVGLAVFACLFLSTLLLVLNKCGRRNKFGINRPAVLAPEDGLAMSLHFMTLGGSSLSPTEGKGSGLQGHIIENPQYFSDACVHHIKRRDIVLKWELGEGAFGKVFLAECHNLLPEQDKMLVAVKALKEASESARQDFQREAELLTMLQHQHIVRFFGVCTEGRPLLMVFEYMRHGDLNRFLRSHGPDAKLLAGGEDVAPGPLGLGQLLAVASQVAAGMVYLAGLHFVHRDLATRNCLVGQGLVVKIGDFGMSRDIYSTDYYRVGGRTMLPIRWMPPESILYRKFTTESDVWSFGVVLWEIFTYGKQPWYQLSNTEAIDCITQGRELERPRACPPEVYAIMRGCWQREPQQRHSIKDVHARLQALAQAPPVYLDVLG
T5 sequence (P12931 whole entry): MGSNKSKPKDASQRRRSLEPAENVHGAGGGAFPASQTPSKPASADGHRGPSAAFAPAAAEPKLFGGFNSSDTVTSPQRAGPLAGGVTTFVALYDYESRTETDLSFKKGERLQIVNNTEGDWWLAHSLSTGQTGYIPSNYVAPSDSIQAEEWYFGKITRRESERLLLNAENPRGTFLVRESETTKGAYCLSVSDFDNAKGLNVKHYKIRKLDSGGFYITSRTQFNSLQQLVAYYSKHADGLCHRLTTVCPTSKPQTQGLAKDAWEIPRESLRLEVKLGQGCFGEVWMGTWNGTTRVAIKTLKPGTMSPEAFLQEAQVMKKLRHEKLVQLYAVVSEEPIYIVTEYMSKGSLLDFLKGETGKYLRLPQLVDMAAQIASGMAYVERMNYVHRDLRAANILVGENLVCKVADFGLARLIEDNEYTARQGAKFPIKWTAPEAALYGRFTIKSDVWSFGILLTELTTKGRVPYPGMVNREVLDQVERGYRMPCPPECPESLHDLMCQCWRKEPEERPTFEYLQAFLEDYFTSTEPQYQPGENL
T2 sequence (P07949 29-1114 G810R): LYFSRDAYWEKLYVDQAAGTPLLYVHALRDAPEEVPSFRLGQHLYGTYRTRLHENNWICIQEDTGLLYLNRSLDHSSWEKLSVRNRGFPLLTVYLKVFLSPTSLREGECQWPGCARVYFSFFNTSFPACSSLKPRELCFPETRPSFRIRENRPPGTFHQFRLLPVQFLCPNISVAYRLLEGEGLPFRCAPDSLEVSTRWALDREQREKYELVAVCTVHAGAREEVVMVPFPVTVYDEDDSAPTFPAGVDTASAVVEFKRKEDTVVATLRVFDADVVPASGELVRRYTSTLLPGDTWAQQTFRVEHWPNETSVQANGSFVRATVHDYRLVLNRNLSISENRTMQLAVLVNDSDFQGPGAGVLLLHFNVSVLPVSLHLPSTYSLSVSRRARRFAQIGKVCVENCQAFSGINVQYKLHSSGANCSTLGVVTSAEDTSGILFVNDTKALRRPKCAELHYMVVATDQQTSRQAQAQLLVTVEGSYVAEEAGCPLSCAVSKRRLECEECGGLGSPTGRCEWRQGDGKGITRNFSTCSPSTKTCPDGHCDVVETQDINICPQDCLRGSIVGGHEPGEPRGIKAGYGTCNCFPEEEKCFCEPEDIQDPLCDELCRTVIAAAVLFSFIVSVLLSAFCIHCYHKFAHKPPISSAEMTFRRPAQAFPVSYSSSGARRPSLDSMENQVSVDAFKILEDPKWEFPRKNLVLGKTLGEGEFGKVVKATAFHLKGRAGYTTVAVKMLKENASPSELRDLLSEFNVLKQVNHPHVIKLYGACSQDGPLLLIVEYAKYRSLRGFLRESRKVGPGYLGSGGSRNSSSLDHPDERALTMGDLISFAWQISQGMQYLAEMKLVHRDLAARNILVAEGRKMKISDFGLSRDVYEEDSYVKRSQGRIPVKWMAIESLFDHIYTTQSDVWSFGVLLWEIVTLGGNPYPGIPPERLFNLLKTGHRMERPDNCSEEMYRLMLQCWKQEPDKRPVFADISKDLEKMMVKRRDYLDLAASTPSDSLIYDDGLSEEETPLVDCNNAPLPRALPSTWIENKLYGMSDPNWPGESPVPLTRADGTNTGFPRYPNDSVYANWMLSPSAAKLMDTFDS
T7 sequence (Q06187 whole entry C481S): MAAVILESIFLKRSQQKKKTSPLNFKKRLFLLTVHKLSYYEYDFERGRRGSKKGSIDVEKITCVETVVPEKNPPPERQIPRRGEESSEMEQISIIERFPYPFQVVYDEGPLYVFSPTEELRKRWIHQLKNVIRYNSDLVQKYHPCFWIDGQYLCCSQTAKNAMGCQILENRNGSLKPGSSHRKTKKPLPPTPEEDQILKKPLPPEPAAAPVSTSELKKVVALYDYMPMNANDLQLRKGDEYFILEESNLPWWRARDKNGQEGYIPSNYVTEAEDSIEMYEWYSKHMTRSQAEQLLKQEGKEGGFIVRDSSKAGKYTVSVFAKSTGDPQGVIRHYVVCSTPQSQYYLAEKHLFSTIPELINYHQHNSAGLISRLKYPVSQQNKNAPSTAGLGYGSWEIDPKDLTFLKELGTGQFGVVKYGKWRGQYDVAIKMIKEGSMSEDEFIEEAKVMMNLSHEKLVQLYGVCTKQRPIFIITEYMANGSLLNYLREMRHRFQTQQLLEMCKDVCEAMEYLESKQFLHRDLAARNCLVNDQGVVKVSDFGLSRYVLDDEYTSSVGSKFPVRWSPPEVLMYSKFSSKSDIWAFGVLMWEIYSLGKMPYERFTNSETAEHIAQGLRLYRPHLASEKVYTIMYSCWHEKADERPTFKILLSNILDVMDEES
T1 sequence (P07949 29-1114): as the sequence (P07949 29-1114 G810R) above, with R782G counted along it
T3 sequence (P07949 29-1114 V804M): as the sequence (P07949 29-1114 G810R) above, with V776M, R782G counted along it
T6 sequence (Q06187 whole entry): as the sequence (Q06187 whole entry C481S) above, with S481C counted along it

For the molecule `C[C@H]1CNC(=O)c2cnn3cc(-c4ccccc4Cl)c(nc23)NCc2cc(F)cnc2O1` [Compound 4, (S, 1^3E, 1^4E)-1^6-(2-chlorophenyl)-4^5-fluoro-6-methyl-5-oxa-2,8-diaza-1(5,3)-pyrazolo[1,5-a]pyrimidina-4(3,2)-pyridinacyclononaphan-9-one], the 50% inhibitory concentration (IC50) (usually the point on the concentration scale where inhibition reaches its midpoint) at RET wt came to 2.2 nM; on RET G810R it was 21 nM; on RET V804M, 161 nM; at TRKa, 294 nM; at SRC, 0.096 nM; on BTK, 3.39 nM. For the same molecule, the half-inhibitory concentration (IC50) on BTK C481S amounted to 9.84 nM.
